Laboratory results published in paper PMC7594079, “Insights into the Function and Evolution of Taste 1 Receptor Gene Family in the Carnivore Fish Gilthead Seabream (Sparus aurata)” (International Journal of Molecular Sciences, 2020).

What was measured:
Format in all cases: cell-based
[1] = biological target: T1, saT1R2a/R3 (Sparus aurata, UniProt A0A671TK95+A0A671VZB3); experiment: saT1R2a/R3 heterodimer transiently transfected in stable pGL3-NFAT-luc-HEK293 (Cl.3) cells, luciferase reporter; conditions: saT1R2a/R3; tested 1–500 mM
T1 sequence (A0A671TK95 20-825): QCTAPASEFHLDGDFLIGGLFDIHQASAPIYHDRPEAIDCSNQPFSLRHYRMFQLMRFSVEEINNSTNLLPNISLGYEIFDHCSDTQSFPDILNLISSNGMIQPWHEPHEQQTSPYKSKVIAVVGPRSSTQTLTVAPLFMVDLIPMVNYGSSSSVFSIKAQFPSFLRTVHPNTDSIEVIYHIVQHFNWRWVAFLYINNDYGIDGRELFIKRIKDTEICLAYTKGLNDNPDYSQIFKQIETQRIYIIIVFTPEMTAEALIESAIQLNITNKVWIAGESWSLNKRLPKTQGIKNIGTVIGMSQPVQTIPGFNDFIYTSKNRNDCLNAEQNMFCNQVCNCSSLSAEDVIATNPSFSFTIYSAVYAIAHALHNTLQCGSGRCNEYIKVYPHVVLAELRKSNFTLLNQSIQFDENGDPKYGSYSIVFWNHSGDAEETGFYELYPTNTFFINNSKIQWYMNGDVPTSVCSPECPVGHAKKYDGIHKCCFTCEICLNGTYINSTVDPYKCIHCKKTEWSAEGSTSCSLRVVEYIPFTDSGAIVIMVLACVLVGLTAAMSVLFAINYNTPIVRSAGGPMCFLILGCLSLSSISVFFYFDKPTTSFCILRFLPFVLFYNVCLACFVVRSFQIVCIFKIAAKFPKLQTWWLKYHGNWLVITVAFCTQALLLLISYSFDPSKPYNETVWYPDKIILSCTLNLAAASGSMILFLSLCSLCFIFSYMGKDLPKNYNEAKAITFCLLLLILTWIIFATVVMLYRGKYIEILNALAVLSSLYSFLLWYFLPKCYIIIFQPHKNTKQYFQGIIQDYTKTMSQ
T1 sequence (A0A671VZB3 24-860): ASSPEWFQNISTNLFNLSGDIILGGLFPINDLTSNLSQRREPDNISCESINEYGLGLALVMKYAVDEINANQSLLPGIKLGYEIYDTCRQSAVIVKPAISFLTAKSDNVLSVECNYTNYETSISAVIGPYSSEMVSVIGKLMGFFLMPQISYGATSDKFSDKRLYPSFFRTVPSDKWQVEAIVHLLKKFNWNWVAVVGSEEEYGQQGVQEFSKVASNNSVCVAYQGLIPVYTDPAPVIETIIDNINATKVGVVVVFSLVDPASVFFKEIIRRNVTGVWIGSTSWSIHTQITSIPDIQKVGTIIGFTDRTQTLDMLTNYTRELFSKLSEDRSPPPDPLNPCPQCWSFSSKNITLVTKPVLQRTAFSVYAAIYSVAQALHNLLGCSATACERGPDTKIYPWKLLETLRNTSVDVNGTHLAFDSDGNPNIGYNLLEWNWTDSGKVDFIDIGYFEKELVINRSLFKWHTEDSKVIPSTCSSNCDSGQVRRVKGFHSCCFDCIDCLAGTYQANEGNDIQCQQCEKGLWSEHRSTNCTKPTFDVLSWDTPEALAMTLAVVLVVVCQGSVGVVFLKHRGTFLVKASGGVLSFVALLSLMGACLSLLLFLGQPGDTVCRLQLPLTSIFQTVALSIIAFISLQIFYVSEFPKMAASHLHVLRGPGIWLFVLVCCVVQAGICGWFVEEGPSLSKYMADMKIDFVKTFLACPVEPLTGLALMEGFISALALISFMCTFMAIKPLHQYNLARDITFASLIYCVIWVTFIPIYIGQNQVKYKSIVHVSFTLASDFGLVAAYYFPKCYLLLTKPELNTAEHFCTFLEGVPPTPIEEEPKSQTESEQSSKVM
Excerpt: (§1) Figure 6 Amino acid Log-dose response curves of activation in heterologous co-transfected (Cl.3) cells with saT1R1/3 (green dots), saT1R2a/3 (red squares) and saT1R2b/3 (black triangles) heterodimers. Evaluation of L-AA responses was based on the RLU mean ± SEM of four independent determinations normalized to the mean response of the same transfections stimulated with reduced assay medium (Basal Medium Eagle w/o L-glutamate (BME) + 1% FBS), and expressed as the percentage relative to basal levels (BL).
(§2) HEK293 cells were cultured in standard medium DMEM (Gibco, Thermo Fisher, Saint Louis, MO, USA) containing 10% FBS, penicillin (100 U/mL) and streptomycin ([…]) at 37 °C, with a humidified atmosphere at 5% CO2. pGL3-NFAT-luc-HEK293 stable clones were generated by co-transfections of pGL3-NFAT-luc and tgCMV/HyTK plasmids (50:1), the latter harboring the hygromycin phosphotransferase gene, using Lipofectamine LTX according to supplier’s protocols (Thermo Fisher, Saint Louis, MO, USA). Initially, HEK293 cells were selected using DMEM containing 400 μg/mL hygromycin B (Sigma, Darmstadt, Germany) in 24-well plates for two weeks; 24 colonies were further grown out in 96-well plates under reduced hygromycin selection (200 µg/mL) for three weeks. Potentially resistant NFAT-luc-HEK293 clones (n = 22) were validated after incubation in assay medium (DMEM + 1% FBS) containing PMA or Ionomycin (Sigma, Darmstadt, Germany) for 18 h (triplicates, 50,000 cells/well). Luciferase activity was quantified with ONE-Glo™ EX Reagent Kit (Promega, Madison, WI, USA) using a 96-microplate TECAN reader (Trading AG, Switzerland).
(§3) saT1Rs (saT1R1, saT1R2a, saT1R2b saT1R3) and saGαi1-2 genes were RT-PCR amplified using 5’ and 3’ flanking primers carrying HindIII and XhoI restriction sites, respectively. Gel-purified fragments were cloned into pGEM-T Easy vectors, re-sequenced, digested and subcloned into pcDNA™3 (Invitrogen, Carlsbad, CA, USA). Effective saT1R cloning into pcDNA™3 was further verified by HindIII/XhoI digestion. Transient co-transfections were done in 6-well plates (confluence ~70–80%) using 100 μL of reduced serum medium (Opti-MEM, Gibco, Thermo Fisher, Saint Louis, MO, USA) containing 150 ng of each selected pcDNA™3 construct, 1:10 charge ratio of Enhanced Green Fluorescent expressing construct (EGFP; positive control), and pBluescript II SK (+) vector DNA (Addgene, Watertown, MA, USA) up to 1 µg of totally transfected DNA. Following 24 h incubation, cells were washed with fresh standard medium and plated in polylysine treated plates for additional 24 h. Cells were then stimulated with L-AAs and sugar compounds for 18 h in a reduced assay medium (BME w/o L-glutamate; Gibco, Thermo Fisher, Saint Louis, MO, USA) + 1% FBS), to prevent unspecific Ca^2+/NFAT signaling activation and potential saT1R desensitization. All L-AAs and sugars used for in vitro experiments were obtained from Merck KGaA (Darmstadt, Germany).

[2] = biological target: T2, saT1R2b/R3 (Sparus aurata, UniProt A0A671TG56+A0A671VZB3); experiment: saT1R2b/R3 heterodimer transiently transfected in stable pGL3-NFAT-luc-HEK293 (Cl.3) cells, luciferase reporter; conditions: saT1R2b/R3; tested 1–500 mM
T2 sequence (A0A671TG56 20-821): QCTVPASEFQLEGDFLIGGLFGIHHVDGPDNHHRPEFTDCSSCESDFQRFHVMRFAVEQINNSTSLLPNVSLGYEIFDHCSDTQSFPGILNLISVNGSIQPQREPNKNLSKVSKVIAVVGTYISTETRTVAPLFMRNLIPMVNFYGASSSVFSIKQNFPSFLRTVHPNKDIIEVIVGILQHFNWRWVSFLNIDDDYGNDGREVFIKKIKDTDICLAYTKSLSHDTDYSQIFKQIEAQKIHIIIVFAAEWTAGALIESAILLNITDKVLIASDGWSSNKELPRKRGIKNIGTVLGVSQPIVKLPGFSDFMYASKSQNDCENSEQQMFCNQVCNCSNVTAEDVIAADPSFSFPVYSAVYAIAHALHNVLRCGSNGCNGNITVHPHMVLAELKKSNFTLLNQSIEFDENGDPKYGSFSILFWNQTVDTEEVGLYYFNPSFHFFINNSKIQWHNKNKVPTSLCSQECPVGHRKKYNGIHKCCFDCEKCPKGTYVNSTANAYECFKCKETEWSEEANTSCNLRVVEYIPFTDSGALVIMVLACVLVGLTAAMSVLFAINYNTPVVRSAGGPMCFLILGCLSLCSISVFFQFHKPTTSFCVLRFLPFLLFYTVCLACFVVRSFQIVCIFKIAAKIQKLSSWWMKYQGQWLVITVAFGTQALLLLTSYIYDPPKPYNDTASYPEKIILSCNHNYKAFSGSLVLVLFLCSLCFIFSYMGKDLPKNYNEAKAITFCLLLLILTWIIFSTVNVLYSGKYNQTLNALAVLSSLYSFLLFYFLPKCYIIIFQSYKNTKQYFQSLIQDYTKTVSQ
T2 sequence (A0A671VZB3 24-860): T1 sequence (A0A671VZB3 24-860)
Excerpt: as §1, §2, §3

[3] = tested on: pGL3-NFAT-luc reporter (Ca2+/NFAT signaling); experiment: pGL3-NFAT-luc construct responsiveness in transiently transfected HEK293 cells; conditions: 10-fold serial dilutions
Excerpt: The luciferase reporter system used in the present study is based on a pGL3-plasmid including three (N)uclear (F)actor of (A)ctivated T cells (NFAT)-responsive elements located upstream of an interleukin-2 (IL2) minimal promoter driving expression of the firefly luciferase reporter gene (pGL3-NFAT-luc plasmid; Addgene (Watertown, MA, USA), cat. number. 17870). To evaluate pGL3-NFAT-luc construct responsiveness, transiently transfected HEK293 cells were stimulated with Phorbol 12-myristate 13-acetate (PMA) and ionomycin, two compounds known to modulate NFAT signaling by mobilization of intracellular Ca^2+ storages.
Figure 4 Evaluation of pGL3-NFAT-luc construct responsiveness to 10-fold serial dilutions to PMA (A) and ionomycin (B) in transiently transfected HEK293 cells. RLU%: Relative Luminescence Unit percentage. […] BL (Basal Levels) = 100% RLU. Different lowercase letters (a,b) on top of bars indicate significant differences (p < 0.05) between concentrations, assessed by one-way ANOVA followed by Tukey’s Multiple Comparison Test (GraphPad Prism version 5.00 Software, La Jolla, CA, USA). […]

Row | concentration with significant activation [1] | concentration with significant activation [2] | Compound | luminescence response of pGL3-NFAT-luc construct [3]
1 | 100 mM | 100 mM | OC[C@@H]1O[C@@H](O[C@@]2(CO)O[C@@H](CO)[C@H](O)[C@H]2O)[C@@H](O)[C@H](O)[C@H]1O [L-Sucrose] | 
2 |  |  | CCCCCCCCCCCCCC(=O)O[C@@H]1[C@@H](C)[C@@]2(O)[C@@H](C=C(CO)C[C@]3(O)C(=O)C(C)=C[C@@H]23)[C@@H]2C(C)(C)[C@]12OC(C)=O [PMA, Phorbol 12-myristate 13-acetate] | significant luminescence dose-response increases
3 |  |  | C[C@H](CCC(=O)O)C[C@H](C)C[C@H](C)C(=O)/C=C(\O)[C@H](C)C[C@H](C)C/C=C/[C@@H](C)[C@@H](O)[C@@H](C)[C@@H](O)C[C@@H]1CC[C@@](C)([C@H]2CC[C@@](C)([C@@H](C)O)O2)O1 [ionomycin] | significant luminescence dose-response increases
